We go through 27 compounds from patent US11008317B2, “Triazolopyridine inhibitors of myeloperoxidase and/or EPX” (priority 2016, dated 2021).

In experiment [1] the target is T1, myeloperoxidase (Homo sapiens, UniProt P05164).
T1 sequence (P05164 49-745): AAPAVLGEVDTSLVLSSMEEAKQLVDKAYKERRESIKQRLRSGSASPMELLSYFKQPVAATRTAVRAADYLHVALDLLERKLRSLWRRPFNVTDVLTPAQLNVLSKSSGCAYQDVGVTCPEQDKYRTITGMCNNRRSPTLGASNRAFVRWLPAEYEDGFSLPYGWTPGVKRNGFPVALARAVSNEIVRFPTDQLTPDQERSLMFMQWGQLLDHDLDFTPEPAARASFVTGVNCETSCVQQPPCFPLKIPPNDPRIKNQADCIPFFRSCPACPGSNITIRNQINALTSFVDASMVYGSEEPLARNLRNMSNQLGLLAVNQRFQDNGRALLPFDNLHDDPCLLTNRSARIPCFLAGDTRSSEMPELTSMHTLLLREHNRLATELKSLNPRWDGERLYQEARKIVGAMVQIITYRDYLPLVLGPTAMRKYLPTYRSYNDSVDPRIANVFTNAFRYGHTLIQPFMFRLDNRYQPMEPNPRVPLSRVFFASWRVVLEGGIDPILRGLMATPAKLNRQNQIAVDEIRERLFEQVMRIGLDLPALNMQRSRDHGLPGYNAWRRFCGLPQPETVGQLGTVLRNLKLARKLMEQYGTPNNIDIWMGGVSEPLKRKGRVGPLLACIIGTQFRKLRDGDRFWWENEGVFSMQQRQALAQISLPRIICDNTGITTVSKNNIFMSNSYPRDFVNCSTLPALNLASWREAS
In words: MPO Peroxidation Assay (Amplex Red Assay). As to conditions: potency range class, read-out: Amplex Red Assay IC50 value. It is filed as biochemical.

Experiment [2] addresses T1, myeloperoxidase. The experiment can be described thus: MPO Chlorination Assay (APF Assay). It is filed as biochemical. As to conditions: potency range class, read-out: APF Assay IC50 value.

As usually defined, the IC50 is the concentration at which inhibition is half-maximal.

`COc1ccncc1[C@H]1CC[C@H](NCCC(c2ccccc2)c2cc(N)nc3[nH]nnc23)CC1` (stereo partly drawn) [Example 137, 7-(1-phenyl-3-{[(trans)-4-(4-methoxypyridin-3-yl)cyclohexyl]amino}propyl)-3H-[1,2,3]triazolo [4,5-b]pyridin-5-amine]: the IC50 at myeloperoxidase [1] was in the range of 1000 to 10000 nM; on myeloperoxidase [2], 101 to 999 nM.
`Nc1cc(C(CCN2CCC(Cc3ccccc3)CC2)c2ccccc2)c2nn[nH]c2n1` (stereo not drawn) [Example 187, 7-[3-(4-benzylpiperidin-1-yl)-1-phenylpropyl]-3H-[1,2,3]triazolo [4,5-b]pyridin-5-amine]: the IC50 on myeloperoxidase [1] is 1000 to 10000 nM; at myeloperoxidase [2] it was 1 to 100 nM.
For `Nc1cc(C(CCNC2CC3CCC(C2)C3c2ccccc2)c2ccccc2)c2nn[nH]c2n1` (stereo not drawn) [Example 149, 7-[1-phenyl-3-({8-phenylbicyclo[3.2.1]octan-3-yl}amino)propyl]-3H-[1,2,3]triazolo[4,5-b] pyridin-5-amine], the figures for the half-maximal inhibitory concentration (IC50) at myeloperoxidase [1] and at myeloperoxidase [2] were 1000 to 10000 nM and 101 to 999 nM, respectively.
In the case of `Nc1cc(C(CCNC2(Cc3ccccc3)CCC(c3ccccc3)CC2)c2ccccc2)c2nn[nH]c2n1` (stereo not drawn) [Example 142, 7-{3-[(1-benzyl-4-phenylcyclohexyl)amino]-1-phenylpropyl}-3H-[1,2,3]triazolo[4,5-b]pyridin-5-amine], the IC50 on myeloperoxidase [1] fell in the range of 1000 to 10000 nM; on myeloperoxidase [2], 101 to 999 nM.
Regarding `Nc1cc(C(CCNC2CCc3ccccc3C2)c2ccccc2)c2nn[nH]c2n1` (stereo not drawn) [Example 188, 7-{1-phenyl-3-[(1,2,3,4-tetrahydronaphthalen-2-yl)amino]propyl}-3H-[1,2,3]triazolo [4,5-b]pyridin-5-amine], the IC50 on myeloperoxidase [1] fell in the range of 101 to 999 nM; on myeloperoxidase [2] it was 1 to 100 nM.
As to `Nc1cc(C(CCNCc2ccccc2OC(F)(F)F)c2ccccc2)c2nn[nH]c2n1` (stereo not drawn) [Example 89, 7-[1-phenyl-3-({[2-(trifluoromethoxy)phenyl]methyl}amino)propyl]-3H-[1,2,3] triazolo[4,5-b] pyridin-5-amine], the results for the IC50 at myeloperoxidase [1] and at myeloperoxidase [2] were 1000 to 10000 nM and 101 to 999 nM, respectively.
As to `Nc1cc([C@H](CC(=O)NC23CCC(c4ccccc4)(CC2)C(O)C3)c2ccccc2)c2nn[nH]c2n1` (stereo partly drawn) [Example 201, (3R)-3-{5-amino-3H-[1,2,3]triazolo[4,5-b]pyridin-7-yl}-N-{3-hydroxy-4-phenylbicyclo [2.2.2]octan-1-yl}-3-phenylpropanamide], the IC50 is 101 to 999 nM at myeloperoxidase [1] and 1 to 100 nM on myeloperoxidase [2].
Regarding `Nc1cc(C(CCNCc2ccccc2Cc2ccccc2)c2ccccc2)c2nn[nH]c2n1` (stereo not drawn) [Example 63, 7-(3-{[(2-benzylphenyl)methyl]amino}-1-phenylpropyl)-3H-[1,2,3]triazolo[4,5-b]pyridin-5-amine], the IC50 on myeloperoxidase [1] was 101 to 999 nM; on myeloperoxidase [2], 1 to 100 nM.
The corresponding values for `Nc1cc(C(CCNCCc2ccccc2)c2ccccc2)c2nn[nH]c2n1` (stereo not drawn) [Example 109, 7-{1-phenyl-3-[(2-phenylethyl)amino]propyl}-3H-[1,2,3] triazolo[4,5-b] pyridin-5-amine] are 101 to 999 nM and 101 to 999 nM.
For `CC1C[C@@H](NCCC(c2ccccc2)c2cc(N)nc3[nH]nnc23)c2ccccc21` (stereo partly drawn) [Example 98, 7-(3-{[(1R)-3-methyl-2,3-dihydro-1H-inden-1-yl]amino}-1-phenylpropyl)-3H-[1,2,3]triazolo [4,5-b] pyridin-5-amine], the IC50 at myeloperoxidase [1] was 101 to 999 nM; at myeloperoxidase [2] it was 1 to 100 nM.
The matching figures for `CC(c1cccc(F)c1)c1cc(N)nc2[nH]nnc12` (racemic) [Example 30, 7-(1-(3-fluorophenyl)ethyl)-3H-[1,2,3]triazolo[4,5-b]pyridin-5-amine]: 1 to 100 nM and 101 to 999 nM.
As for `Nc1cc(C(Cc2cccc(O)c2)c2ccccc2)c2nn[nH]c2n1` (stereo not drawn) [Example 230, 3-(2-(5-amino-3H-[1,2,3]triazolo[4,5-b]pyridin-7-yl)-2-phenylethyl)phenol], the IC50 at myeloperoxidase [1] was 1 to 100 nM; on myeloperoxidase [2], 1000 to 10000 nM.
For the compound `Nc1cc(C(CCCN[C@H]2CC[C@H](c3ccccc3)CC2)c2ccccc2)c2nn[nH]c2n1` (stereo partly drawn) [Example 208, 7-(1-phenyl-4-{[(trans)-4-phenylcyclohexyl]amino}butyl)-3H-[1,2,3]triazolo [4,5-b]pyridin-5-amine], the IC50 at myeloperoxidase [1] was 1000 to 10000 nM; at myeloperoxidase [2], 101 to 999 nM.
Turning to `Nc1cc(C(CCN[C@@H]2C[C@H](c3ccccc3)Cc3ccccc32)c2ccccc2)c2nn[nH]c2n1` (stereo partly drawn) [Example 83, 7-(1-phenyl-3-{[(1R,3R)-3-phenyl-1,2,3,4-tetrahydronaphthalen-1-yl]amino}propyl)-3H-[1,2,3]triazolo [4,5-b]pyridin-5-amine], the IC50 was 1000 to 10000 nM on myeloperoxidase [1] and 1 to 100 nM on myeloperoxidase [2].
Regarding `Nc1cc(C(CCNC2CCC(c3ccc(F)cc3)CC2)c2ccccc2)c2nn[nH]c2n1` (stereo not drawn) [Example 112, 7-(3-{[4-(4-fluorophenyl)cyclohexyl]amino}-1-phenylpropyl)-3H-[1,2,3]triazolo [4,5-b]pyridin-5-amine], the IC50 at myeloperoxidase [1] and at myeloperoxidase [2] was 101 to 999 nM in each case.
On to `N#Cc1ccccc1C(CCN[C@H]1CC[C@H](c2ccccc2)CC1)c1cc(N)nc2[nH]nnc12` (stereo partly drawn) [Example 161, 2-(1-{5-amino-3H-[1,2,3]triazolo [4,5-b]pyridin-7-yl}-3-{[(trans)-4-phenylcyclohexyl]amino}propyl) benzonitrile], for which the concentration for half-maximal inhibition (IC50) on myeloperoxidase [1] is 1000 to 10000 nM; on myeloperoxidase [2] it was 101 to 999 nM.
Turning to `CC(C)(C)C1CCC(NCCC(c2ccccc2)c2cc(N)nc3[nH]nnc23)CC1` (stereo not drawn) [Example 96, 7-{3-[(4-tert-butylcyclohexyl)amino]-1-phenylpropyl}-3H-[1,2,3]triazolo[4,5-b] pyridin-5-amine], the half-inhibitory concentration (IC50) is 1000 to 10000 nM on myeloperoxidase [1] and 101 to 999 nM at myeloperoxidase [2].
The matching figures for `Nc1cc(C(CCCN2CCC(c3ccccc3)c3ccccc32)c2ccccc2)c2nn[nH]c2n1` (stereo not drawn) [Example 206, 7-[1-phenyl-4-(4-phenyl-1,2,3,4-tetrahydroquinolin-1-yl)butyl]-3H-[1,2,3]triazolo [4,5-b]pyridin-5-amine]: 1000 to 10000 nM and 1 to 100 nM.
Regarding `Nc1cc(C(Cc2ccccc2)c2ccccc2F)c2nn[nH]c2n1` (single isomer, unassigned) [Example 10, 7-(1-(2-fluorophenyl)-2-phenylethyl)-3H-[1,2,3]triazolo[4,5-b]pyridin-5-amine], the IC50 at myeloperoxidase [1] and at myeloperoxidase [2] was 1 to 100 nM in each case.
As for `CC1C[C@H](NCCC(c2ccccc2)c2cc(N)nc3[nH]nnc23)c2ccccc21` (stereo partly drawn) [Example 99, 7-(3-{[(1S)-3-methyl-2,3-dihydro-1H-inden-1-yl]amino}-1-phenylpropyl)-3H-[1,2,3]triazolo[4,5-b] pyridin-5-amine], the IC50 was 101 to 999 nM on myeloperoxidase [1] and 1 to 100 nM on myeloperoxidase [2].
Turning to `Nc1cc(C(CCNCc2ccc3ccccc3c2)c2ccccc2)c2nn[nH]c2n1` (stereo not drawn) [Example 16, 7-(3-{[(naphthalen-2-yl)methyl]amino}-1-phenylpropyl)-3H-[1,2,3]triazolo[4,5-b] pyridin-5-amine], the results for the concentration for half-maximal inhibition (IC50) on myeloperoxidase [1] and at myeloperoxidase [2] were 101 to 999 nM and 1 to 100 nM, respectively.
In the case of `Nc1cc(C(CCN[C@@H]2CCc3ccc(F)cc32)c2ccccc2)c2nn[nH]c2n1` (stereo partly drawn) [Example 60, 7-(3-{[(1R)-6-fluoro-2,3-dihydro-1H-inden-1-yl]amino}-1-phenylpropyl)-3H-[1,2,3]triazolo[4,5-b]pyridin-5-amine], the IC50 at myeloperoxidase [1] was in the range of 101 to 999 nM; on myeloperoxidase [2], 1 to 100 nM.
With `Cn1c(C[C@H](c2ccccc2)c2cc(N)nc3[nH]nnc23)nc2cc(-c3ccccc3)ccc21` [Example 258, (R)-7-(2-(1-methyl-5-phenyl-1H-benzo[d]imidazol-2-yl)-1-phenylethyl)-3H-[1,2,3]triazolo[4,5-b] pyridin-5-amine], the IC50 is 1000 to 10000 nM on myeloperoxidase [1] and 101 to 999 nM on myeloperoxidase [2].
With `Nc1cc([C@H](CCN(CC(O)C(F)(F)F)C23CCC(c4ccccc4)(CC2)CC3)c2ccccc2)c2nn[nH]c2n1` (stereo partly drawn) [Example 198, 3-{[(3R)-3-{5-amino-3H-[1,2,3]triazolo [4,5-b]pyridin-7-yl}-3-phenylpropyl]({4-phenylbicyclo[2.2.2]octan-1-yl})amino}-1,1,1-trifluoropropan-2-ol], the 50% inhibitory concentration (IC50) at myeloperoxidase [1] and on myeloperoxidase [2] was 1 to 100 nM in each case.
For `Nc1cc(C(CCN[C@H]2CC[C@H](c3ccccc3)CC2)c2ccccc2F)c2nn[nH]c2n1` (stereo partly drawn) [Example 157, 7-[1-(2-fluorophenyl)-3-{[(trans)-4-phenylcyclohexyl]amino}propyl]-3H-[1,2,3]triazolo [4,5-b]pyridin-5-amine], the IC50 on myeloperoxidase [1] was 101 to 999 nM; on myeloperoxidase [2], 1 to 100 nM.
In the case of `Nc1cc(C(Cc2ccc(O)cc2)c2ccccc2)c2nn[nH]c2n1` (stereo not drawn) [Example 229, 4-(2-(5-amino-3H-[1,2,3]triazolo[4,5-b]pyridin-7-yl)-2-phenylethyl)phenol], the IC50 at myeloperoxidase [1] is 1 to 100 nM; on myeloperoxidase [2] it was 101 to 999 nM.
As for `CNC(=O)CN(CC[C@H](c1ccccc1)c1cc(N)nc2[nH]nnc12)C12CCC(c3ccccc3)(CC1)CC2` [Example 191, 2-{[(3R)-3-{5-amino-3H-[1,2,3]triazolo [4,5-b]pyridin-7-yl}-3-phenylpropyl]({4-phenylbicyclo[2.2.2]octan-1-yl})amino}-N-methylacetamide], the IC50 on myeloperoxidase [1] lay in the range of 101 to 999 nM; at myeloperoxidase [2], 1 to 100 nM.
